# Assay results from ChEMBL document CHEMBL1145547, “Achiral, selective CCK2 receptor antagonists based on a 1,3,5-benzotriazepine-2,4-dione template” (Bioorg Med Chem, 2008).
# The source made the active and inactive calls. The calls are words filed in the database; no cut-off is given here.
# Columns and labels:
# [1] = molecular target: T1, Cholecystokinin receptor type A (Homo sapiens, UniProt P32238); experiment: Displacement of [3H]L-364718 from human recombinant CCK1 receptor expressed in CHO-K1 cells; type: cell-based
# T1 sequence (P32238 whole entry): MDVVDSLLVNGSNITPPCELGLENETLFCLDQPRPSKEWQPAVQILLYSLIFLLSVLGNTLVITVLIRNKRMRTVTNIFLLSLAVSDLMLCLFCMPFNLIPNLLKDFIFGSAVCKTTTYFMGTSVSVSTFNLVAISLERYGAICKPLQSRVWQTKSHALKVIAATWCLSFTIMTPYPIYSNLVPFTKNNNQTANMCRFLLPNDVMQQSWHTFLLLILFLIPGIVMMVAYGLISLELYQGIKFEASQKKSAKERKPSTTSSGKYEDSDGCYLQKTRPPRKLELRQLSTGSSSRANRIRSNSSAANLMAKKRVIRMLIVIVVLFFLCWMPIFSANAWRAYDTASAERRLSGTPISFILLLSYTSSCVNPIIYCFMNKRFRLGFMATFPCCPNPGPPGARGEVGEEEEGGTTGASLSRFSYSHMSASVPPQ
# [2] = molecular target: T2, Gastrin/cholecystokinin type B receptor (Homo sapiens, UniProt P32239); experiment: Displacement of [125I]BH-CCK-8S from human recombinant CCK2 receptor expressed in NIH3T3 cells; type: cell-based
# T2 sequence (P32239 whole entry): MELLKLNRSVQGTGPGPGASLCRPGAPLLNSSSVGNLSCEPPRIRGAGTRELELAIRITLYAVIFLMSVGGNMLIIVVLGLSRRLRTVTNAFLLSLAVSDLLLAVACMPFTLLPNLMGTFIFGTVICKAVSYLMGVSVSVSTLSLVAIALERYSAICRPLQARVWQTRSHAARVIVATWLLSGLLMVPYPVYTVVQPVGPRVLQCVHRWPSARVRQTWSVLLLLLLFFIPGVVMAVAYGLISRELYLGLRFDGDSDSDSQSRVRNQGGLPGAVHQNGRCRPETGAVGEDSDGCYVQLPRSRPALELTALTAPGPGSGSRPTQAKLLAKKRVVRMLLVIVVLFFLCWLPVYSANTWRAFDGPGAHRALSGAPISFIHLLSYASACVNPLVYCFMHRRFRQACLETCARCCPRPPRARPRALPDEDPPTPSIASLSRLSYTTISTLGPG
# [3] = molecular target: T1, Cholecystokinin receptor type A; experiment: Binding affinity to human CCK1 receptor
# [4] = molecular target: T2, Gastrin/cholecystokinin type B receptor; experiment: Binding affinity at human CCK2 receptor
# [5] = molecular target: T3, Cholecystokinin receptor type A (Cavia porcellus) (UniProt Q63931); experiment: Agonist activity at CCK1 receptor assessed as stimulation of contraction in guinea pig gallbladder at 30 uM relative to CCK8; type: functional
# T3 sequence (whole entry): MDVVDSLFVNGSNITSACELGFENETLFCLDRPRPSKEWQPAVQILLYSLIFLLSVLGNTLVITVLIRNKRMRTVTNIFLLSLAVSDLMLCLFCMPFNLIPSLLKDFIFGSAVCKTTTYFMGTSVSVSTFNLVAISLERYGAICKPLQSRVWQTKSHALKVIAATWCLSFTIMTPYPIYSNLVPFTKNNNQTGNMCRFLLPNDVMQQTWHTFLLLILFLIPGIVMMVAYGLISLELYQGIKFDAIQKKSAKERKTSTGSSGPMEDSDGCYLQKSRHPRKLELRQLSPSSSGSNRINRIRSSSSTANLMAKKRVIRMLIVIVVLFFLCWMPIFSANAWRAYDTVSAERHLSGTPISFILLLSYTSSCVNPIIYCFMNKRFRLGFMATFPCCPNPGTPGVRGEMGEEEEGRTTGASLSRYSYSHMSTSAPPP
# [6] = molecular target: T4, Cholecystokinin receptor type A (Cavia porcellus, UniProt Q63931); experiment: (§1) Agonist activity at CCK1 receptor assessed as stimulation of contraction in guinea pig gallbladder; type: functional
# T4 sequence (Q63931 whole entry): T3 sequence (whole entry)
# [7] = molecular target: T5, Gastrin/cholecystokinin type B receptor (Mus musculus, UniProt P56481); experiment: Binding affinity to mouse CCK2 receptor
# T5 sequence (P56481 whole entry): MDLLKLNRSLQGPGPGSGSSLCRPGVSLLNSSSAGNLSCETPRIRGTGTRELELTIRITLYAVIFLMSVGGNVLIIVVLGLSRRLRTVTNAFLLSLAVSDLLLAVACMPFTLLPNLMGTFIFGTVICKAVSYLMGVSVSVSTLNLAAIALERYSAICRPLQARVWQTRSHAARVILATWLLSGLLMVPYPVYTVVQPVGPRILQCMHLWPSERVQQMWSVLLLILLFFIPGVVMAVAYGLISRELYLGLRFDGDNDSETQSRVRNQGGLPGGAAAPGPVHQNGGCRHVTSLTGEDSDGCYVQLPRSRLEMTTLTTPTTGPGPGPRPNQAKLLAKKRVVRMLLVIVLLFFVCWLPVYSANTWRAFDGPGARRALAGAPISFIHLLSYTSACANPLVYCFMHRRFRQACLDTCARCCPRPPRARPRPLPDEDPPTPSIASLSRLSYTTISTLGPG
# [8] = molecular target: T6, Cholecystokinin receptor type A (Mus musculus, UniProt O08786); experiment: Binding affinity to mouse CCK1 receptor
# T6 sequence (O08786 whole entry): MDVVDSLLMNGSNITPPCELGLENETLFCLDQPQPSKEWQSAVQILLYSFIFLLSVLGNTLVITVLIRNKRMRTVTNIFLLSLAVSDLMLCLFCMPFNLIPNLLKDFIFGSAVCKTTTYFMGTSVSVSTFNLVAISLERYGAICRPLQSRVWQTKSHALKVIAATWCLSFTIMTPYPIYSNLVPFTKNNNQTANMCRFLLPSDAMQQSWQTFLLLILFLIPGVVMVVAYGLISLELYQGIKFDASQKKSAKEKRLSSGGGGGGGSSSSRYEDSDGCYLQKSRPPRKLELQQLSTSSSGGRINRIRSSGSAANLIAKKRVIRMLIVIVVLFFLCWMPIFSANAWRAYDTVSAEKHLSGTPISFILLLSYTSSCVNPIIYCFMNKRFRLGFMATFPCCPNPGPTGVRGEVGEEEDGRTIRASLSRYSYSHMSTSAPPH
# [9] = molecular target: T7, Gastrin/cholecystokinin type B receptor (Rattus norvegicus) (UniProt P30553); experiment: Antagonist activity at CCK2 receptor in immature rat stomach assessed as pentagastrin-induced acid secretion at 1 uM; type: functional, tissue-based
# T7 sequence (whole entry): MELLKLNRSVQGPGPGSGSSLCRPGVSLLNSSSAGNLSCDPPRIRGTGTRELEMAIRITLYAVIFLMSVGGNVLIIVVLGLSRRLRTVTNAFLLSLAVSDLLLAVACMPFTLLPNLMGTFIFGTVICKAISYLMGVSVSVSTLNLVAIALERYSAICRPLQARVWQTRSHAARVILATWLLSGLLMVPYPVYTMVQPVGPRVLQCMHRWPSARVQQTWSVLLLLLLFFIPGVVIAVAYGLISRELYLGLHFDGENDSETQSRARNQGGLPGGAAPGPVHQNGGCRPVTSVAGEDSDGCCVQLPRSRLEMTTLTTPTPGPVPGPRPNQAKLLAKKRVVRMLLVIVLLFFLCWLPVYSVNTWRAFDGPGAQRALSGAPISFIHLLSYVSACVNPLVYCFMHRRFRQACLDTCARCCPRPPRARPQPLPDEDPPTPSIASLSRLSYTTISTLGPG
# [10] = molecular target: T3, Cholecystokinin receptor type A (Cavia porcellus); experiment: as §1; type: functional
SMILES,Ki [1],Ki [2],other results
CC(C)N(C(=O)CN1C(=O)C(NC(=O)Nc2cccc(C(=O)O)c2)C(=O)N(c2ccccc2)c2ccccc21)c1ccccc1 (centres undefined),–,–,Ki [3]: 126 nM; Ki [4]: 10 nM; Activity [5]: 102%; EC50 [6]: 39.8 nM
CC(C)(C)C(=O)CN1C(=O)N(CCCC(=O)Nc2cccc(-c3nc(=O)o[nH]3)c2)C(=O)N(C2CCCCC2)c2ccccc21,72.4 nM,20.9 nM,–
CC(C)(C)C(=O)CN1C(=O)N(CC(=O)Nc2cccc(C(=O)O)c2)N=C(C2CCCCC2)c2ccccc21,–,–,Ki [3]: 10000 nM; Ki [4]: 1 nM
CC(C)N(C(=O)CN1C(=O)C(CC(=O)Nc2ccccc2)C(=O)N(c2ccccc2)c2ccccc21)c1ccccc1 (centres undefined),–,–,Ki [3]: 158 nM; Ki [4]: 794 nM; Activity [5]: 50%; EC50 [6]: 398 nM
CC(C)N(C(=O)CN1C(=O)C(NC(=O)Nc2ccccc2)C(=O)N(c2ccccc2)c2ccccc21)c1ccccc1 (centres undefined),–,–,Activity [5]: 86%
CC(C)(C)C(=O)CN1C(=O)N(CC(=O)Nc2cccc(-c3nc(=O)o[nH]3)c2)C(=O)N(C2CCCCC2)c2ccccc21,316 nM,1.2 nM,–
CNc1cccc(NC(=O)N[C@@H]2N=C(c3ccccn3)c3ccccc3N(CC(=O)C(C)(C)C)C2=O)c1 [NETAZEPIDE],–,–,Ki [3]: 31.6 nM; Ki [4]: 0.0794 nM
Cc1cccc(NC(=O)NC2C(=O)N(CC(=O)N3CCCC3)c3ccccc3N(CC(=O)N3CCCC3)C2=O)c1,–,–,IC50 [7]: 50.1 nM; IC50 [8]: 794 nM
O=C(CN1C(=O)N(CC(=O)N2CCCC2)c2ccccc2N(c2ccccc2)C1=O)Nc1cccc(C(=O)O)c1,> 10000 nM,380 nM,–
CN(c1cccc(NC(=O)CN2C(=O)N(CC(=O)C(C)(C)C)c3ccccc3N(C3CCCCC3)C2=O)c1)c1nn[nH]n1,2090 nM,4.27 nM,–
CN(C(=O)CN1C(=O)C(NC(=O)Nc2ccccc2)C(=O)N(c2ccccc2)c2ccccc21)c1ccccc1 (centres undefined),–,–,Activity [5]: inactive; pKb [10]: 6.3

# Further lines, with some results ahead:
Ki [1],Ki [2],SMILES,other results
> 10000 nM,1000 nM,O=C(CN1C(=O)N(CC(=O)N2CCCC2)c2ccccc2N(c2ccccc2)C1=O)Nc1ccccc1,–
2340 nM,6.31 nM,CC(C)(C)C(=O)CN1C(=O)N(CC(=O)Nc2cccc(CCC(=O)O)c2)C(=O)N(C2CCCCC2)c2ccccc21,–
3890 nM,3.16 nM,CC(C)(C)C(=O)CN1C(=O)N(CC(=O)Nc2cccc(CC(=O)O)c2)C(=O)N(C2CCCCCC2)c2ccccc21,–
117 nM,0.427 nM,CC(C)(C)C(=O)CN1C(=O)N(CC(=O)Nc2cccc(-c3nc(=O)o[nH]3)c2)C(=O)N(C2CCCCCC2)c2ccccc21,–
617 nM,23.4 nM,Cc1cccc(NC(=O)CN2C(=O)N(CC(=O)N3CCCC3)c3ccccc3N(C3CCCCCC3)C2=O)c1,Activity [9]: inactive
282 nM,0.891 nM,CC(C)(C)C(=O)CN1C(=O)N(CC(=O)Nc2cccc(SCC(=O)O)c2)C(=O)N(C2CCCCCC2)c2ccccc21,–
1550 nM,9.55 nM,Cc1nc(-c2cccc(NC(=O)CN3C(=O)N(CC(=O)C(C)(C)C)c4ccccc4N(C4CCCCC4)C3=O)c2)cs1,–
2340 nM,9.55 nM,CNc1cccc(NC(=O)CN2C(=O)N(CC(=O)C(C)(C)C)c3ccccc3N(C3CCCCC3)C2=O)c1,–
447 nM,7.59 nM,Cc1cccc(NC(=O)CN2C(=O)N(CC(=O)C(C)(C)C)c3ccccc3N(C3CCCCCC3)C2=O)c1,–
